# Laboratory results from patent US20150209315A1 (Cumberland Pharmaceuticals, priority 2009, published 2015).
# How the values were obtained:
# [1] = system: post-operative adult patients; test: Example 1: time to GI motility, ambulation, liquid/solid intake, length of hospital stay; assay type: in vivo, human; details: for Time to GI motility: value + SD
# [2] = system: patients undergoing orthopedic surgical procedures; test: Example 3: pain at rest measured with VAS; details: 800 mg, immediately post-surgery
# [3] = system: post-operative adult patients; test: Example 1: patient self-assessment of pain, VAS with movement; assay type: in vivo, human; set-up: key to VAS Score measured with Movement (median): VAS 0-10: 0 = no pain, 10 = intense pain; details: 400 mg
# Method: Pain was measured by the patient's self-assessment using a Visual Analog Scale (VAS) from 0-10 with 0 being no pain and 10 being intense pain. This was measured both at rest and with movement. […] […] To account for the missing pain assessments, two missing value approaches as described in the statistical analysis plan were used to impute values. To determine the difference in overall pain at differing time-points, the area under the VAS pain curve during the first 24 hours, between 6 and 24 hours and between 12 and 24 hours were analyzed.
smiles,measurement,setting,value
"CC(C)Cc1ccc(C(C)C(=O)O)cc1 (stereo not shown) [Ibuprofen, 2-(4-isobutylphenyl) propionic acid]",Time to GI motility,"[1]; 400 mg, EEP",20.2+1.30 hours
same,Time to GI motility,"[1]; 400 mg, ITT",20.1+1.28 hours
same,Time to GI motility,"[1]; 800 mg, EEP",21.2+1.63 hours
same,Time to GI motility,"[1]; 800 mg, ITT",21.6+1.50 hours
same,time to liquid intake vs placebo,"[1]; ibuprofen treated group, ITT",not found to be statistically significant
same,time to solid intake vs placebo,"[1]; ibuprofen treated group, ITT",not found to be statistically significant
same,Time to ambulation vs placebo,"[1]; ibuprofen treated groups, ITT",found not to be statistically significant faster
same,Length of hospital stay vs placebo,"[1]; treated groups, ITT",not found to be statistically significant
same,decrease in the mean VAS at rest,[2]; AT,15.8%
same,decrease in the mean VAS at rest,[2]; efficacy evaluable,14.7%
same,decrease in the mean VAS at rest,[2]; intent-to-treat,16.5%
same,VAS Score measured with Movement (median),"[3]; EEP, 1-Hour",7.5
same,"VAS Score measured with Movement, % Reduction vs Placebo","[3]; EEP, 1-Hour",6.2%
same,VAS Score measured with Movement (median),"[3]; EEP, 2-Hour",7.2
same,"VAS Score measured with Movement, % Reduction vs Placebo","[3]; EEP, 2-Hour",−1.4%
same,VAS Score measured with Movement (median),"[3]; EEP, 3-Hour",6.2
same,"VAS Score measured with Movement, % Reduction vs Placebo","[3]; EEP, 3-Hour",−3.3%
same,VAS Score measured with Movement (median),"[3]; EEP, 6-Hour",5.7
same,"VAS Score measured with Movement, % Reduction vs Placebo","[3]; EEP, 6-Hour",−14.0%
same,VAS Score measured with Movement (median),"[3]; EEP, 9-Hour",4.8
same,"VAS Score measured with Movement, % Reduction vs Placebo","[3]; EEP, 9-Hour",4.0%
same,VAS Score measured with Movement (median),"[3]; EEP, 12-Hour",4.5
same,"VAS Score measured with Movement, % Reduction vs Placebo","[3]; EEP, 12-Hour",10.0%
same,VAS Score measured with Movement (median),"[3]; EEP, 15-Hour",4.0
same,"VAS Score measured with Movement, % Reduction vs Placebo","[3]; EEP, 15-Hour",20.0%
same,VAS Score measured with Movement (median),"[3]; EEP, 18-Hour",4.3
same,"VAS Score measured with Movement, % Reduction vs Placebo","[3]; EEP, 18-Hour",14.0%
same,VAS Score measured with Movement (median),"[3]; EEP, 21-Hour",4.0
same,"VAS Score measured with Movement, % Reduction vs Placebo","[3]; EEP, 21-Hour",20.0%
same,VAS Score measured with Movement (median),"[3]; EEP, 24-Hour",5.0
same,"VAS Score measured with Movement, % Reduction vs Placebo","[3]; EEP, 24-Hour",−13.6%
same,VAS Score measured with Movement (median),"[3]; EEP, 27-Hour",4.6
same,"VAS Score measured with Movement, % Reduction vs Placebo","[3]; EEP, 27-Hour",−2.2%
same,VAS Score measured with Movement (median),"[3]; EEP, 30-Hour",4.0
same,"VAS Score measured with Movement, % Reduction vs Placebo","[3]; EEP, 30-Hour",2.4%
same,VAS Score measured with Movement (median),"[3]; EEP, 33-Hour",3.9
same,"VAS Score measured with Movement, % Reduction vs Placebo","[3]; EEP, 33-Hour",−2.6%
same,VAS Score measured with Movement (median),"[3]; EEP, 36-Hour",3.6
same,"VAS Score measured with Movement, % Reduction vs Placebo","[3]; EEP, 36-Hour",7.7%
same,VAS Score measured with Movement (median),"[3]; EEP, 39-Hour",3.1
same,"VAS Score measured with Movement, % Reduction vs Placebo","[3]; EEP, 39-Hour",8.8%
same,VAS Score measured with Movement (median),"[3]; EEP, 42-Hour",3.3
same,"VAS Score measured with Movement, % Reduction vs Placebo","[3]; EEP, 42-Hour",5.7%
same,VAS Score measured with Movement (median),"[3]; EEP, 45 Hour",3.3
same,"VAS Score measured with Movement, % Reduction vs Placebo","[3]; EEP, 45 Hour",−6.5%
same,VAS Score measured with Movement (median),"[3]; EEP, 48-Hour",3.2
same,"VAS Score measured with Movement, % Reduction vs Placebo","[3]; EEP, 48-Hour",−33.3%
same,VAS Score measured with Movement (median),"[3]; ITT, 1-Hour",7.5
same,"VAS Score measured with Movement, % Reduction vs Placebo","[3]; ITT, 1-Hour",6.2%
same,VAS Score measured with Movement (median),"[3]; ITT, 2-Hour",7.4
same,"VAS Score measured with Movement, % Reduction vs Placebo","[3]; ITT, 2-Hour",−1.4%
same,VAS Score measured with Movement (median),"[3]; ITT, 3-Hour",6.3
same,"VAS Score measured with Movement, % Reduction vs Placebo","[3]; ITT, 3-Hour",0.0%
same,VAS Score measured with Movement (median),"[3]; ITT, 6-Hour",5.7
same,"VAS Score measured with Movement, % Reduction vs Placebo","[3]; ITT, 6-Hour",0.0%
same,VAS Score measured with Movement (median),"[3]; ITT, 9-Hour",4.7
same,"VAS Score measured with Movement, % Reduction vs Placebo","[3]; ITT, 9-Hour",9.6%
same,VAS Score measured with Movement (median),"[3]; ITT, 12-Hour",4.5
same,"VAS Score measured with Movement, % Reduction vs Placebo","[3]; ITT, 12-Hour",10.0%
same,VAS Score measured with Movement (median),"[3]; ITT, 15-Hour",3.9
same,"VAS Score measured with Movement, % Reduction vs Placebo","[3]; ITT, 15-Hour",22.0%
same,VAS Score measured with Movement (median),"[3]; ITT, 18-Hour",4.3
same,"VAS Score measured with Movement, % Reduction vs Placebo","[3]; ITT, 18-Hour",14.0%
same,VAS Score measured with Movement (median),"[3]; ITT, 21-Hour",4.1
same,"VAS Score measured with Movement, % Reduction vs Placebo","[3]; ITT, 21-Hour",16.3%
same,VAS Score measured with Movement (median),"[3]; ITT, 24-Hour",4.6
same,"VAS Score measured with Movement, % Reduction vs Placebo","[3]; ITT, 24-Hour",−2.2%
same,VAS Score measured with Movement (median),"[3]; ITT, 27 Hour",4.6
same,"VAS Score measured with Movement, % Reduction vs Placebo","[3]; ITT, 27 Hour",−4.5%
same,VAS Score measured with Movement (median),"[3]; ITT, 30-Hour",4.0
same,"VAS Score measured with Movement, % Reduction vs Placebo","[3]; ITT, 30-Hour",0.0%
same,VAS Score measured with Movement (median),"[3]; ITT, 33-Hour",3.8
same,"VAS Score measured with Movement, % Reduction vs Placebo","[3]; ITT, 33-Hour",0.0%
